Data taken from US20260200943A1, “COMPOUNDS FOR TREATING CANCER” (Genesis Therapeutics, Inc., priority 2022, published 2026).
Where two headings read alike, the source gives them in different places.

Columns and labels:
[1] = not given; remark: listed apart in the source
CDK2/CyclinA2 [2] = biological target: T1, CDK2/CyclinA2 (Homo sapiens, UniProt P24941); assay: CDK2/CyclinA2 ChEF Assay (Table A); type: biochemical
T1 construct: Wild-type, full length CDK2 in complex with wildtype, full length CyclinA2: Carna Cat #04-103; purchased Carna 04-103
Description: 500 nL of 50× compound in 100% DMSO is added to a 384-well low volume, white assay plate. 19.5 μL of 1.3×CDK2/CyclinA2 (Wild-type, full length CDK2 in complex with wildtype, full length CyclinA2: Carna Cat #04-103 diluted in assay buffer (50 mM Hepes, 0.01% Brij-35, 10 mM MgCl2, 0.5 mM EGTA, 1% Glycerol, and 1.2 mM DTT) is added to the plates on top of the compound and pre-incubated for 30 minutes at room temperature. Following the incubation, 5 μL of 5×Sox-chromophore (CSox) labeled peptide substrate (AQT0255, AssayQuant) & ATP diluted in assay buffer is added to the plate to initiate the reaction. The assay is incubated at room temperature for 45 min after initiation. The CSox peptide substrate is phosphorylated by CDK2/A2 upon ATP hydrolysis.
(§1) The fluorescent intensity measurement of the assay plate for all assays described above is read on a microplate reader once the assay is initiated and again at the completion of the assay. Phosphorylation of the CSox-based peptide substrate sensor results in an immediate increase in fluorescence. These raw fluorescence intensity values are normalized to calculate percent inhibition, which are fit to a four-parameter logistic curve and IC50 values are calculated. IC50 values are converted to Ki using substrate, KM^app values, and the Cheng-Prusoff equation.

CDK1/CyclinB1 [3] = biological target: T2, CDK1/CyclinB1 (Homo sapiens, UniProt P06493); assay: CDK1/CyclinB1 ChEF Assay (Table A); type: biochemical; details: read-out: CDK1/CCNB1 ChEF Ki: Average Ki;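 further: Ki reported in nM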
T2 construct: Wild-type, full length CDK1 in complex with wildtype, full length CyclinB1: Carna Cat #04-102; purchased Carna 04-102
Description: 500 nL of 50× compound in 100% DMSO is added to a 384-well low volume, white assay plate. 19.5 μL of 1.3×CDK1/CyclinB1 (Wild-type, full length CDK1 in complex with wildtype, full length CyclinB1: Carna Cat #04-102) diluted in assay buffer (50 mM Hepes, 0.01% Brij-35, 10 mM MgCl2, 0.5 mM EGTA, 1% Glycerol, and 1.2 mM DTT) is added to the plates on top of the compound and pre-incubated for 30 minutes at room temperature. Following the incubation, 5 μL of 5×Sox-chromophore (CSox) labeled peptide substrate (AQT0297, AssayQuant) & ATP diluted in assay buffer is added to the plate to initiate the reaction. The assay is incubated at room temperature for 30 min after initiation. The CSox peptide substrate is phosphorylated by CDK1/B1 upon ATP hydrolysis.
as §1

CDK9/CyclinT1 [4] = biological target: T3, CDK9/CyclinT1 (Homo sapiens, UniProt P50750); assay: CDK9/CyclinT1 ChEF Assay (Table A); type: biochemical; parameters: Wild-type, full length CDK9 in complex with wildtype, full length CyclinT1: Invitrogen Cat #PV4131; purchased Invitrogen PV4131; details: 10xKm, read-out: CDK9/CCNT1 ChEF 10xKm Ki: Average Ki
Description: 500 nL of 50× compound in 100% DMSO is added to a 384-well low volume, white assay plate. 19.5 μL of 1.3×CDK9/CyclinT1 (Wild-type, full length CDK9 in complex with wildtype, full length CyclinT1: Invitrogen Cat #PV4131) diluted in assay buffer (50 mM Hepes, 0.01% Brij-35, 10 mM MgCl2, 0.5 mM EGTA, 1% Glycerol, and 1.2 mM DTT) is added to the plates on top of the compound and pre-incubated for 30 minutes at room temperature. Following the incubation, 5 μL of 5×Sox-chromophore (CSox) labeled peptide substrate (AQT0449, AssayQuant) & ATP diluted in assay buffer is added to the plate to initiate the reaction. The assay is incubated at room temperature for 120 min after initiation. The CSox peptide substrate is phosphorylated by CDK9/T1 upon ATP hydrolysis.
as §1
Target sequence in this assay (P50750 whole entry): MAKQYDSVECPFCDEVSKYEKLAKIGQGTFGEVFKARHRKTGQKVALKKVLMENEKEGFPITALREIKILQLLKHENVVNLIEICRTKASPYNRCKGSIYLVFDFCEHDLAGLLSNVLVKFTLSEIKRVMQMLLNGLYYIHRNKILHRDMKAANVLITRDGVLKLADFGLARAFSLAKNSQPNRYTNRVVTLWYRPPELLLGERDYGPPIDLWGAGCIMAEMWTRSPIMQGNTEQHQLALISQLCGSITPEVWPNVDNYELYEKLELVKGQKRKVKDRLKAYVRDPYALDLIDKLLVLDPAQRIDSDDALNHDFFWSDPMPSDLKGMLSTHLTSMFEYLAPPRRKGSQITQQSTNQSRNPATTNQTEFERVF
Target sequence in this assay (O60563 whole entry partner): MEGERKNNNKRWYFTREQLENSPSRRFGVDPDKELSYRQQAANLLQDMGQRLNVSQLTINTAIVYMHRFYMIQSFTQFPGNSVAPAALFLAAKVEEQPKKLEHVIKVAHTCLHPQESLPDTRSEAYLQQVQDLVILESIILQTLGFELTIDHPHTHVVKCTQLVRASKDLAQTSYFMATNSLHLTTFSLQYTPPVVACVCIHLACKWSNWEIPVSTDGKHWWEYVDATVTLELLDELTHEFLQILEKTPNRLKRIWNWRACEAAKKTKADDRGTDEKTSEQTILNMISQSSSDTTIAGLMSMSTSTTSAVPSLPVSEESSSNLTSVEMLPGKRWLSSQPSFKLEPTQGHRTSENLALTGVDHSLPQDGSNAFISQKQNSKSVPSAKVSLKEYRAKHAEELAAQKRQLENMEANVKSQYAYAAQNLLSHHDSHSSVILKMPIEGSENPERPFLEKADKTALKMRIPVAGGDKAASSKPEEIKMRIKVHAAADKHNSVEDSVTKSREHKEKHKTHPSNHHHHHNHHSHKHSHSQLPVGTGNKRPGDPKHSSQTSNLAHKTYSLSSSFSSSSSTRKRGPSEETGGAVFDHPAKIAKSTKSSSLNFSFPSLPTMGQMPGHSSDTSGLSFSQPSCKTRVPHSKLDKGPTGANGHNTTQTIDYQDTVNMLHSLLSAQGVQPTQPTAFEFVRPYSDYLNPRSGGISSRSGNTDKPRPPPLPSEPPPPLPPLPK

CDK9/CyclinT1 [5] = biological target: T3, CDK9/CyclinT1; assay: CDK9/CyclinT1 Mobility Shift Assay (Caliper, Table B); type: biochemical; parameters: Wild-type, full length CDK9 in complex with wildtype, CyclinT1 (1-259): Biortus Cat #BP480/792/691; purchased Biortus BP480/792/691; details: read-out: CDK9/Cyclin T1 Caliper Ki: Average Ki
Description: 10 nL of 2000× compound in 100% DMSO is added to a 384-well polypropylene assay plate. 15 μL of 1.3×CDK9/T1 and 1.3× fluorescent substrate (Wild-type, full length CDK9 in complex with wildtype, CyclinT1 (1-259): Biortus Cat #BP480/792/691 and FL-Peptide 34: PerkinElmer Cat #760643) diluted in kinase buffer (50 mM Hepes, 0.01% Brij-35, 10 mM MgCl2, 1 mM EGTA, 0.05% BSA, and 2 mM DTT) is added to the plates on top of the compound, mixed, and pre-incubated for 30 minutes at room temperature. The fluorescently labeled peptide substrate is phosphorylated by CDK9/T1 upon ATP hydrolysis. Following the incubation, 5 μL of 4×ATP diluted in kinase buffer is added to the plate to initiate the reaction. Following the 30-minute incubation, the reaction is stopped by adding 75 μL of stopping buffer containing 0.5 M EDTA.
(§2) The assay plate is then read on a Lab Chip EZ Reader which separates the fluorescently labeled substrate and product peptides through a mobility difference. The phosphorylation of the substrate imparts a negative charge, which allows differences in separation as both are pulled through the microfluidic chip. The ratio of substrate and product values are used to generate percent conversion. These raw percent conversion values are normalized to calculate percent inhibition, which are fit to a four-parameter logistic curve and IC50 values are calculated. IC50 values are converted to Ki using substrate, Kmapp values, and the Cheng-Prusoff equation.
Target sequence in this assay (P50750 whole entry): as the sequence (P50750 whole entry) above
Target sequence in this assay (O60563 1-259 partner limits assumed): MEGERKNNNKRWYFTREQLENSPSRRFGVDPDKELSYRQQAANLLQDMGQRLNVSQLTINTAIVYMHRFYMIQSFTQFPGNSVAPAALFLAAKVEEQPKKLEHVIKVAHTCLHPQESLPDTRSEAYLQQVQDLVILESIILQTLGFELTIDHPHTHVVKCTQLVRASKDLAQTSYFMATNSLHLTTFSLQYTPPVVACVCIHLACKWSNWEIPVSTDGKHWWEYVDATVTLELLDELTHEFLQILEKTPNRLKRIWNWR

CDK2/CyclinA2 [6] = biological target: T1, CDK2/CyclinA2; assay: CDK2/Cyclin A2 Mobility Shift Assay (Caliper, Table B); type: biochemical; details: for Ki: Caliper mobility shift, 10xKm, read-out: CDK2/CCNA2 Caliper 10xKm Ki: Average Ki
Description: 10 nL of 2000× compound in 100% DMSO is added to a 384-well polypropylene assay plate. 15 μL of 1.3×CDK2/A2 and 1.3× fluorescent substrate (Wild-type, full length CDK2 in complex with wildtype, full length CyclinA2: Carna Cat #04-103 and FL-Peptide 18: PerkinElmer Cat #760362) diluted in kinase buffer (50 mM Hepes, 0.01% Brij-35, 10 mM MgCl2, 1 mM EGTA, 0.05% BSA, and 2 mM DTT) is added to the plates on top of the compound, mixed, and pre-incubated for 30 minutes at room temperature. The fluorescently labeled peptide substrate is phosphorylated by CDK2/A2 upon ATP hydrolysis. Following the incubation, 5 μL of 4×ATP diluted in kinase buffer is added to the plate to initiate the reaction. Following the 30-minute incubation, the reaction is stopped by adding 75 μL of stopping buffer containing 0.5 M EDTA.
as §2, with “Ki through” for “Ki”, “substrate and Km^app” for “substrate, Kmapp”

CDK1/CyclinB1 [7] = biological target: T2, CDK1/CyclinB1; assay: CDK1/Cyclin B1 Mobility Shift Assay (Caliper, Table B); type: biochemical; details: read-out: CDK1/CCNB1 Caliper Ki: Average Ki
Description: 10 nL of 2000× compound in 100% DMSO is added to a 384-well polypropylene assay plate. 15 μL of 1.3×CDK1/B1 and 1.3× fluorescent substrate (Wild-type, full length CDK1 in complex with wildtype, full length CyclinB1: Carna Cat #04-102 and FL-Peptide 29: PerkinElmer Cat #760429) diluted in kinase buffer (50 mM Hepes, 0.01% Brij-35, 10 mM MgCl2, 1 mM EGTA, 0.05% BSA, and 2 mM DTT) is added to the plates on top of the compound, mixed, and pre-incubated for 30 minutes at room temperature. The fluorescently labeled peptide substrate is phosphorylated by CDK1/B1 upon ATP hydrolysis. Following the incubation, 5 μL of 4×ATP diluted in kinase buffer is added to the plate to initiate the reaction. Following the 30-minute incubation, the reaction is stopped by adding 75 μL of stopping buffer containing 0.5 M EDTA.
as §2

T2 sequence (P06493 whole entry): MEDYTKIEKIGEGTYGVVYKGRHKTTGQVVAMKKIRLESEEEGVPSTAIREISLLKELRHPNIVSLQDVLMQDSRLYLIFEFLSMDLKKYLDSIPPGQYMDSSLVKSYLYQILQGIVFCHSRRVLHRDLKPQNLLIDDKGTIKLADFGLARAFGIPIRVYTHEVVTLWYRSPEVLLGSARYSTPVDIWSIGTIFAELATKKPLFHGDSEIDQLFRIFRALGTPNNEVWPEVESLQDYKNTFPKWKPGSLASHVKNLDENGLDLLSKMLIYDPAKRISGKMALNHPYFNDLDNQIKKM
T2 sequence (P14635 whole entry partner): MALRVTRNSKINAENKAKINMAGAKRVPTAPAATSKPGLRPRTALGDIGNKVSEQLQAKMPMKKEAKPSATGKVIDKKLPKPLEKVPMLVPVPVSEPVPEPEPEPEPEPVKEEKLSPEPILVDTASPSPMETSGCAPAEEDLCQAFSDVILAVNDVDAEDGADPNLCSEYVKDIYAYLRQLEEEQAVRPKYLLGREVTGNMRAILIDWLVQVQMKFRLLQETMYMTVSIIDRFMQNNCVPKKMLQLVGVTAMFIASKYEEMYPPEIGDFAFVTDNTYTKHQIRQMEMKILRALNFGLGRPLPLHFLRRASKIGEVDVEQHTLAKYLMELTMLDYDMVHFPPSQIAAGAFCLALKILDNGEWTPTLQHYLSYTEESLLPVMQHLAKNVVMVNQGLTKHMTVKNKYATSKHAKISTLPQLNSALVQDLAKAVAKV

| SMILES | Ki (CDK2/CyclinA2 [6]) | CDK2/CCNA2 Caliper 10xKm Ki: CDK2/A2 Selectivity over CDK1/B1 (CDK2/CyclinA2 [6]) | CDK2/CCNA2 Caliper 10xKm Ki: CDK2/A2 Selectivity over CDK9 (CDK2/CyclinA2 [6]) | Ki (CDK1/CyclinB1 [7]) | further results |
| --- | --- | --- | --- | --- | --- |
| CC(C)(C)n1nc2cc1[C@H]1CC[C@H](C1)OC(=O)NCCCCCCNS(=O)(=O)C1CCC(CC1)N2 | – | – | – | – | ring closure, yield of all isomers (from CC(C)(C)OC(=O)NCCCCCCNS(=O)(=O)C1CCC(Nc2cc([C@H]3CC[C@@H](OC(=O)Oc4ccc([N+](=O)[O-])cc4)C3)n(C(C)(C)C)n2)CC1, other bond, DIPEA, DCE, 4.26 mM, 25.0 °C, 18.0 h, 2 steps): 50% |
| CC(C)(C)n1nc2cc1[C@H]1CC[C@H](C1)OC(=O)NCCOCCNS(=O)(=O)c1ccc(c(F)c1)N2 | – | – | – | – | ring closure, yield of all isomers (from CC(C)(C)OC(=O)NCCOCCNS(=O)(=O)c1ccc(Nc2cc([C@H]3CC[C@@H](OC(=O)Oc4ccc([N+](=O)[O-])cc4)C3)n(C(C)(C)C)n2)c(F)c1, other bond, DIPEA, DCE, 5.25 mM, 25.0 °C, 18.0 h, 2 steps): 62.3% |
| Cn1ncc2c1C(=O)NCCCCCOc1nc(ncc1Br)NC1CCN(CC1)S2(=O)=O | – | – | – | – | ring closure, yield of all isomers (from Cn1ncc(S(=O)(=O)N2CCC(N)CC2)c1C(=O)NCCCCCOc1nc(Cl)ncc1Br, snar bond, K2CO3, DMSO, 6.02 mM, 110.0 °C, 2.0 h): 33% |
| Cn1ncc2c1C(=O)NCCCCCOc1nc(ncc1Cl)NC1CCN(CC1)S2(=O)=O | – | – | – | – | ring closure, isolated yield ([1]; from Cn1ncc(S(=O)(=O)N2CCC(N)CC2)c1C(=O)NCCCCCOc1nc(Cl)ncc1Br, snar bond, 19-membered ring, K2CO3, DMSO, 6.02 mM, 110.0 °C): 33% |
| NCCCCCOc1cc(Nc2ncc(C3CCC(OC(=O)Oc4ccc([N+](=O)[O-])cc4)C3)cn2)ccc1S(N)(=O)=O (stereo not shown) | – | – | – | – | ring closure, isolated yield ([1]; the molecule shown is the open-chain precursor, other bond, 20-membered ring, DIEA, DMF, 41.5 mM, 50.0 °C): 11.1% |
| NS(=O)(=O)c1ccc2cc1NCCCCCNC(=O)OC1CCC(C1)c1cnc(nc1)N2 (stereo not shown) | – | – | – | – | ring closure, yield of all isomers (from CC(C)(C)OC(=O)NCCCCCNc1cc(Nc2ncc(C3CCC(OC(=O)Oc4ccc([N+](=O)[O-])cc4)C3)cn2)ccc1S(=O)(=O)NC(=O)OC(C)(C)C, other bond, DIEA, DMF, 75.0 mM, 50.0 °C, 3.0 h, 2 steps): 39.5% |
| NS(=O)(=O)c1ccc2cc1OCCCCCNC(=O)OC1CCC(C1)c1cnc(nc1)N2 (stereo not shown) | – | – | – | – | ring closure, yield of all isomers (from NCCCCCOc1cc(Nc2ncc(C3CCC(OC(=O)Oc4ccc([N+](=O)[O-])cc4)C3)cn2)ccc1S(N)(=O)=O, other bond, DIEA, DMF, 41.5 mM, 50.0 °C, 2.0 h): 11.1% |
| O=C1NCCCCn2cc(cn2)S(=O)(=O)N2CCC(CC2)Nc2cc([nH]n2)[C@H]2CC[C@H](C2)O1 [Compound 94, (11S,13R,24Z,64E)-21H,61H-13-oxa-5-thia-3,11-diaza-4(4,1)-piperidina-2(5,3),6(4,1)-dipyrazola-1(1,3)-cyclopentanacyclotridecaphan-12-one 5,5-dioxide] | – | – | – | – | Ki (CDK2/CyclinA2 [2]; 10xKm, read-out: CDK2/CCNA2 ChEF 10xKm Ki: Average Ki): 25 to 100 nM; CDK2/CCNA2 ChEF 10xKm Ki: CDK2/A2 Selectivity over CDK9/T1 (CDK2/CyclinA2 [2]; selectivity over CDK9/T1): A (A>10); Ki (CDK1/CyclinB1 [3]): ≥ 100 nM; Ki (CDK9/CyclinT1 [4]): 1 to 25 nM; Ki (CDK9/CyclinT1 [5]): 25 to 100 nM |
| O=C1NCCCCCCCOc2cccc(n2)Nc2ncc(cn2)[C@@H]2CC[C@@H](C2)O1 [Compound 111] | 25 to 100 nM | C (C<5) | B (5≤B<10) | ≥ 100 nM | Ki (CDK9/CyclinT1 [5]): ≥ 100 nM |
| O=C1NCCCCCCOc2cccc(n2)Nc2ncc(cn2)[C@@H]2CC[C@@H](C2)O1 [Compound 112] | 25 to 100 nM | B (5≤B<10) | B (5≤B<10) | ≥ 100 nM | Ki (CDK9/CyclinT1 [5]): ≥ 100 nM |
| O=C1NCCCCCOc2cccc(n2)Nc2ncc(cn2)[C@@H]2CC[C@@H](C2)O1 [Compound 113] | ≥ 100 nM | B (5≤B<10) | B (5≤B<10) | ≥ 100 nM | – |
| O=C1NCCCCOc2cccc(n2)Nc2ncc(cn2)[C@@H]2CC[C@@H](C2)O1 [Compound 114] | 25 to 100 nM | B (5≤B<10) | B (5≤B<10) | ≥ 100 nM | – |
| O=C1NCCCCCCNS(=O)(=O)c2ccc(cc2)Nc2ncc(cn2)[C@@H]2CC[C@@H](C2)O1 [Compound 115] | ≥ 100 nM | B (5≤B<10) | C (C<5) | ≥ 100 nM | – |
